Reference: PMC3526545, “New perspectives for natural antimicrobial peptides: application as antinflammatory drugs in a murine model” (BMC Immunology, 2012)
Several values for one entry are separate records, joined by “and”; a condition that tells them apart may be missing. Identical values can stand only once.

Assays:
J774 cells [1] = experiment: Nitrite (NO2-) formation in J774 cells, Griess reaction; type: cell-based, mouse
[2] = tested on: Staphylococcus epidermidis strains; experiment: Antibacterial activity of AMPs (MIC100) and synergism (FIC index); type: cell-based; conditions: against Staphylococcus epidermidis strains, single agent
Protocol: (§1) Antibacterial activity of the peptides used in this work was evaluated as described previously. […] The fractional inhibitory concentration (FIC) index for combinations of two peptides was calculated according to the equation: FIC index = […] = A/MICA + B/MICB , where A and B are the MICs of drug A and drug B in the combination, MICA and MICB are the MICs of drug A and drug B alone, and FICA and FICB are the FICs of drug A and drug B. The FIC indices were interpreted as follows: ≤0.5, synergy; 0.51-4.0, no interaction; > 4.0, antagonism.

[3] = tested on: Staphylococcus epidermidis strains; experiment: % inhibition of bacterial growth by the MIX and its components; type: cell-based; conditions: MIX = both
Protocol: as §1, with “antagonism. The growth inhibition percentages of Staphylococcus epidermidis and probiotic strains were assessed under the same conditions.” for “antagonism.”

[4] = tested on: Staphylococcus epidermidis strains; experiment: Antibiotic susceptibility, disk diffusion method on Mueller-Hinton agar; type: cell-based; conditions: all 10 Staphylococcus epidermidis strains
[5] = tested on: probiotics bacteria (Lactobacillus plantarum, Lactobacillus Paracasei, Bifidobacterium animalis); experiment: Antibacterial activity against probiotics bacteria, overall statement; type: cell-based; conditions: MIX RJI-C 9 μg/ml + TB-KK 6 μg/ml; gentamicin 5 μg/ml
Protocol: The growth inhibition percentages of Staphylococcus epidermidis and probiotic strains were assessed under the same conditions.

J774 cells [6] = experiment: TNF-α, IFN-γ, IL-10 mRNA expression in J774 cells (real time PCR); type: cell-based, mouse; conditions: gentamicin 5 μg/ml, ASA 5 μg/ml or MIX (RJI-C 9 μg/ml + TB-KK 6 μg/ml) for 3 hours; Figure 3B
[7] = tested on: SAA, haptoglobin, fibrinogen; experiment: Acute phase proteins in blood of infected mice; type: in vivo, mouse
CD64 = conditions: mouse, in vivo
[8] = tested on: Staphylococcus epidermidis (SE); conditions: mouse, in vivo, iv
COX-2 = conditions: mouse, in vivo
[9] = tested on: Staphylococcus epidermidis (SE); conditions: mouse, in vivo, iv; remark: listed apart in the source

PFKIDIHLGGY-NH2 [RJI-C, analogue of the royal jellein I, chemically modified at the C terminal]
NO2- synthesis in LPS-stimulated J774 cells, in words (J774 cells [1]): reduced NO2^- synthesis | MIC100 ([2]; 10^5 CFU/well): 30 µg/mL | MIC ([2]; value in brackets): 24 µM | % inhibition of bacterial growth ([3]; strain 2/2, RJI-C 9 μg/ml, TB-KK 6 μg/ml): 18 ± 1% | % inhibition of bacterial growth ([3]; strain 3/28, RJI-C 9 μg/ml (7.3 μM), TB-KK 6 μg/ml (2.6 μM)): 17 ± 2% | % inhibition of bacterial growth ([3]; strain 5/6, RJI-C 9 μg/ml, TB-KK 6 μg/ml): 4 ± 3% | % inhibition of bacterial growth ([3]; strain 5/8, RJI-C 9 μg/ml, TB-KK 6 μg/ml): 12 ± 2% | % inhibition of bacterial growth ([3]; strain 5/25, RJI-C 9 μg/ml, TB-KK 6 μg/ml): 15 ± 1% | % inhibition of bacterial growth ([3]; strain 9/1, RJI-C 9 μg/ml, TB-KK 6 μg/ml): 18 ± 0% | % inhibition of bacterial growth ([3]; strain 10/28, RJI-C 9 μg/ml, TB-KK 6 μg/ml): 0% | % inhibition of bacterial growth ([3]; strain 12/14, RJI-C 9 μg/ml, TB-KK 6 μg/ml): 11 ± 0.5% | % inhibition of bacterial growth ([3]; strain 12/26, RJI-C 9 μg/ml, TB-KK 6 μg/ml): 19 ± 2%

C[C@H]1[C@H](NC(=O)/C(=N\OC(C)(C)C(=O)O)c2csc(N)n2)C(=O)N1S(=O)(=O)O [ATM30, aztreonam]
antibiotic resistance pattern, all strains [4]: resistant

bacitracin [B2]
antibiotic resistance pattern, all strains [4]: resistant

Cc1onc(-c2ccccc2Cl)c1C(=O)N[C@@H]1C(=O)N2[C@@H]1SC(C)(C)[C@@H]2C(=O)O [CX1, cloxacillin]
antibiotic resistance pattern, all strains [4]: resistant

CNC(C)C1CCC(N)C(OC2C(N)CC(N)C(OC3OCC(C)(O)C(NC)C3O)C2O)O1 (stereo not drawn) [Gentamicin, gentamicin]
antibacterial activity against probiotics bacteria, in words [5]: killed the totality of the probiotics tested | induction of inflammation (TNF-α, IFN-γ, IL-10 mRNA) in J774 cells without LPS (J774 cells [6]): do not induce inflammation | SAA ([7]; 3h after treatment, blood of mice infected with Staphylococcus epidermidis, naive 6±0.8, control 17±0.6): 20 ± 0.8 mg/dL | SAA ([7]; 6h after treatment, control 19.1±0.5): 18.4 ± 1.2 mg/dL | Haptoglobin ([7]; 6h after treatment, control 329±55.2): 264 ± 58.3 mg/dL | SAA ([7]; 9h after treatment, control 21.7±0.9): 16 ± 0.7 mg/dL | Fibrinogen ([7]; mouse, in vivo): 340 ± 41.0 mg/dL and 385 ± 45.2 mg/dL and 364 ± 12.6 mg/dL | Haptoglobin ([7]; mouse, in vivo): 244 ± 42.5 mg/dL and 278 ± 42.9 mg/dL | SAA, haptoglobin and fibrinogen, in words ([7]; mouse, in vivo): within normal ranges | expression of the CD64 marker in blood (CD64): decreased expression of the CD64 marker | infection status of kidneys and spleens eleven days after the infection [8]: still infected | MIC ([2]; 10^5 CFU/well): 5 µg/mL | MIC ([2]; value in brackets): 10 µM | COX-2 expression level in kidney (COX-2): COX-2 expression level returned to the normal level nine hours after the treatment | bacterial load of kidneys and spleens [9]: decreased

Cc1ncc([N+](=O)[O-])n1CCO [M80, metronidazole]
antibiotic resistance pattern, all strains [4]: resistant

CC(=O)Oc1ccccc1C(=O)O [ASA, acetylsalicylic acid]
induction of inflammation (TNF-α, IFN-γ, IL-10 mRNA) in J774 cells without LPS (J774 cells [6]): do not induce inflammation

C[C@@H](O)[C@H]1C(=O)N2C(C(=O)O)=C(SCCN=CN)C[C@H]12 [IPM10, imipenem]
antibiotic resistance pattern, all strains [4]: sensitive
